Measurements from paper PMC9856672, “SGC-CAMKK2-1: A Chemical Probe for CAMKK2” (Cells, 2023).

Legend:
ROS1 = target: T1, ROS1 (Homo sapiens, UniProt P08922); assay: KINOMEscan binding assay at 1 μM, ROS1; conditions: Compound Concentration 1000 nM; read-out: Percent Control
T1 construct: purchased Eurofins DiscoverX KINOMEscan
Source text: (§1) Supplement cells-12-00287-s001.zip/File S2. KinomeScan data for the CAMKK2 probe and negative control.xlsx, sheet "SGC-CAMKK2-1N" | column: Percent Control

GAK = target: T2, GAK (Homo sapiens, UniProt O14976); assay: KINOMEscan at 1 μM, GAK; format: binding; conditions: 1000 nM, read-out: Percent Control
T2 construct: purchased Eurofins DiscoverX KINOMEscan
Source text: as §1

FRK = target: T3, FRK (Homo sapiens, UniProt P42685); assay: KINOMEscan binding assay at 1 μM, FRK; conditions: Compound Concentration 1000 nM; read-out: Percent Control
T3 construct: purchased Eurofins DiscoverX KINOMEscan
Source text: as §1

LATS1 = target: T4, LATS1 (Homo sapiens, UniProt O95835); assay: KINOMEscan at 1 μM, LATS1; format: binding; conditions: 1000 nM, read-out: Percent Control
T4 construct: purchased Eurofins DiscoverX KINOMEscan
Source text: as §1

ADCK4 = target: T5, ADCK4 (Homo sapiens, UniProt Q96D53); assay: KINOMEscan at 1 μM, ADCK4; format: binding; conditions: 1000 nM, read-out: Percent Control
T5 construct: purchased Eurofins DiscoverX KINOMEscan
Source text: as §1

MYLK4 = target: T6, MYLK4 (Homo sapiens, UniProt Q86YV6); assay: KINOMEscan at 1 μM, MYLK4; format: binding; conditions: 1000 nM, read-out: Percent Control
T6 construct: purchased Eurofins DiscoverX KINOMEscan
Source text: as §1

NDR1 = target: T7, NDR1 (Homo sapiens, UniProt Q15208); assay: KINOMEscan at 1 μM, NDR1; format: binding; conditions: 1000 nM, read-out: Percent Control
T7 construct: purchased Eurofins DiscoverX KINOMEscan
Source text: as §1

TYRO3 = target: T8, TYRO3 (Homo sapiens, UniProt Q06418); assay: KINOMEscan binding assay at 1 μM, TYRO3; conditions: Compound Concentration 1000 nM; read-out: Percent Control
T8 construct: purchased Eurofins DiscoverX KINOMEscan
Source text: as §1

[1] = target: T9, RSK3(Kin.Dom.1-N-terminal) (Homo sapiens, UniProt Q15349); assay: KINOMEscan binding assay at 1 μM, RSK3(Kin.Dom.1-N-terminal); conditions: Compound Concentration 1000 nM; read-out: Percent Control
T9 construct: RSK3(Kin.Dom.1-N-terminal); purchased Eurofins DiscoverX KINOMEscan
Source text: as §1

PIKFYVE = target: T10, PIKFYVE (Homo sapiens, UniProt Q9Y2I7); assay: KINOMEscan at 1 μM, PIKFYVE; format: binding; conditions: 1000 nM, read-out: Percent Control
T10 construct: purchased Eurofins DiscoverX KINOMEscan
T10 sequence (Q9Y2I7 whole entry): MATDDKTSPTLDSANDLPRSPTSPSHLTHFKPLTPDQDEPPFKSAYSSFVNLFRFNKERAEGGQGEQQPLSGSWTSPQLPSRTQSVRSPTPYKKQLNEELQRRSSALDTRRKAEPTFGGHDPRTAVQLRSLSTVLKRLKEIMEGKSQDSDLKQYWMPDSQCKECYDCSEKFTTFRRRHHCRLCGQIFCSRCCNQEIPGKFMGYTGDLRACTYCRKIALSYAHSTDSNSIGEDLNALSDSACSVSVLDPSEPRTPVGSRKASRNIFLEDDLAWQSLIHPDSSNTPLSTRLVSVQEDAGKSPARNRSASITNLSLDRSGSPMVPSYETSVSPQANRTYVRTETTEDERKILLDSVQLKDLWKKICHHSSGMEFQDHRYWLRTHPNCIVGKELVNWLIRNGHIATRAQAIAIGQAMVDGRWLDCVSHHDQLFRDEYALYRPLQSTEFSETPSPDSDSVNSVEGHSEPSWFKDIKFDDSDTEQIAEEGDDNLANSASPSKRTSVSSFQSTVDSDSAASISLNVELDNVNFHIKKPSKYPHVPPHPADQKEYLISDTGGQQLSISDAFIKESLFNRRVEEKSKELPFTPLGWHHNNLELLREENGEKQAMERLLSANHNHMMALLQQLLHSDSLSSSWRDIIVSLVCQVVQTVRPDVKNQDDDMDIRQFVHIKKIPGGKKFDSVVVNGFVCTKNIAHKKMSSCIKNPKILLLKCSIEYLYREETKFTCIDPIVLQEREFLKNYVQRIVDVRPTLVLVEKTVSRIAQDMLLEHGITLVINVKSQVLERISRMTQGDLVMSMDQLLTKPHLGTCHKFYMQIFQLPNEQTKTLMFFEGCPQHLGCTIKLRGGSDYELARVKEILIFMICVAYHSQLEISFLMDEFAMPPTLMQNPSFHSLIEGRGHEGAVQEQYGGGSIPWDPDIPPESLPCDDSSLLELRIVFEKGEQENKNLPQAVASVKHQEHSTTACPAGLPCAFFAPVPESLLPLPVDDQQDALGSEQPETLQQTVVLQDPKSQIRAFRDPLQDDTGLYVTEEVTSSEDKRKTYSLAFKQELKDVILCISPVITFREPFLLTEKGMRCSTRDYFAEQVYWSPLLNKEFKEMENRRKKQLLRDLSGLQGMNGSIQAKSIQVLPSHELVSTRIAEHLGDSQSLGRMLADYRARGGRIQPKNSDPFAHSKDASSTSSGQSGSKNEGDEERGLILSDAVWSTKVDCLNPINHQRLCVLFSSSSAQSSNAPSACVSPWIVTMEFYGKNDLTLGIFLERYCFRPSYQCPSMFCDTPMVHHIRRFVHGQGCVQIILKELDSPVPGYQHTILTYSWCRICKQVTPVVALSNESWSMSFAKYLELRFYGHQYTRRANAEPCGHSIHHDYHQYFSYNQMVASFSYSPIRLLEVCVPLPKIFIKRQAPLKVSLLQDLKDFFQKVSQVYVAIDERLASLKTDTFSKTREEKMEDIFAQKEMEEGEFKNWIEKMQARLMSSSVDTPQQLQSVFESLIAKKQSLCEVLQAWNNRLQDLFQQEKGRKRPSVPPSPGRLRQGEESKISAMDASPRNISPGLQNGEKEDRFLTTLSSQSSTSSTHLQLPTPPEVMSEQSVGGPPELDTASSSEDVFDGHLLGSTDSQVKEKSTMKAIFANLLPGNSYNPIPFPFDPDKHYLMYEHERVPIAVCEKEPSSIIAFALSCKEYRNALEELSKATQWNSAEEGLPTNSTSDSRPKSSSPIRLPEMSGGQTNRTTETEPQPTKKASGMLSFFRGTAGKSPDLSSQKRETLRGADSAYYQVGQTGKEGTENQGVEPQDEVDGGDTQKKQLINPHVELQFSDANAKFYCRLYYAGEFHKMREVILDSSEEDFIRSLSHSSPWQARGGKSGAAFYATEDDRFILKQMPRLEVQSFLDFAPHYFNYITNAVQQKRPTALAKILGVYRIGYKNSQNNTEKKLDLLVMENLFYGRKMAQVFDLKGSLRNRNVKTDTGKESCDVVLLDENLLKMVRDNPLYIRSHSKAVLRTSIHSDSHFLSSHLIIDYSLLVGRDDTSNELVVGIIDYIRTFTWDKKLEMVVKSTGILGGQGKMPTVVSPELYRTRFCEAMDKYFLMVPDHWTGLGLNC
Source text: as §1

CDKL1 = target: T11, CDKL1 (Homo sapiens, UniProt Q00532); assay: KINOMEscan at 1 μM, CDKL1; format: binding; conditions: 1000 nM, read-out: Percent Control
T11 construct: purchased Eurofins DiscoverX KINOMEscan
Source text: as §1

p38-gamma = target: T12, p38-gamma (Homo sapiens, UniProt P53778); assay: KINOMEscan binding assay at 1 μM, p38-gamma; conditions: Compound Concentration 1000 nM; read-out: Percent Control
T12 construct: purchased Eurofins DiscoverX KINOMEscan
Source text: as §1

ADCK3 = target: T13, ADCK3 (Homo sapiens, UniProt Q8NI60); assay: KINOMEscan at 1 μM, ADCK3; format: binding; conditions: 1000 nM, read-out: Percent Control
T13 construct: purchased Eurofins DiscoverX KINOMEscan
T13 sequence (Q8NI60 163-647): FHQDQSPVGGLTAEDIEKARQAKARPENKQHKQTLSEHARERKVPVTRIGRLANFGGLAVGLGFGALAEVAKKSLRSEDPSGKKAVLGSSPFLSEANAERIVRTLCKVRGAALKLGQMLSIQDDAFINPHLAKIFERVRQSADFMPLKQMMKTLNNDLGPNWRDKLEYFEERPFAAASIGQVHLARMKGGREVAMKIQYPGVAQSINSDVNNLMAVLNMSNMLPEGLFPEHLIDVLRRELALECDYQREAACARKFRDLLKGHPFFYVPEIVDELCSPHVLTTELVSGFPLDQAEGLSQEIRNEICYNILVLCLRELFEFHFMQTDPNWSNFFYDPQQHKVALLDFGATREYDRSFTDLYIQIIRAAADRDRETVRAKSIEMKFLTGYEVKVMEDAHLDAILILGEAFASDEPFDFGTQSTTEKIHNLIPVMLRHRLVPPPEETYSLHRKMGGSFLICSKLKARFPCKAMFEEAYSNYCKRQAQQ
Source text: as §1

CDK5 = target: T14, CDK5 (Homo sapiens, UniProt Q00535); assay: KINOMEscan at 1 μM, CDK5; format: binding; conditions: 1000 nM, read-out: Percent Control
T14 construct: purchased Eurofins DiscoverX KINOMEscan
Source text: as §1

PFTAIRE2 = target: T15, PFTAIRE2 (Homo sapiens, UniProt Q96Q40); assay: KINOMEscan at 1 μM, PFTAIRE2; format: binding; conditions: 1000 nM, read-out: Percent Control
T15 construct: purchased Eurofins DiscoverX KINOMEscan
T15 sequence (Q96Q40 whole entry): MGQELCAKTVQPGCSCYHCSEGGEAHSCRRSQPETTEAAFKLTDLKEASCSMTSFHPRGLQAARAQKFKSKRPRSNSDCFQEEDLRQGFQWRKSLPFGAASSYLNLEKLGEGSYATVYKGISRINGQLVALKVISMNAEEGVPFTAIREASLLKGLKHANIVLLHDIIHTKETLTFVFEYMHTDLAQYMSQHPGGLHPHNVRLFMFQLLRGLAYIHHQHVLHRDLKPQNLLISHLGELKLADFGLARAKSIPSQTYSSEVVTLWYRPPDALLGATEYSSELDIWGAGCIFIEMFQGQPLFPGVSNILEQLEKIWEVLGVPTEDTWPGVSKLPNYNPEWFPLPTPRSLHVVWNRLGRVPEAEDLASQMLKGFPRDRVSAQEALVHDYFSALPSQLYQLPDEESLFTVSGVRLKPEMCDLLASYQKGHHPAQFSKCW
Source text: as §1

KIT = target: T16, KIT (Homo sapiens, UniProt P10721); assay: KINOMEscan at 1 μM, KIT; format: binding; conditions: 1000 nM, read-out: Percent Control
T16 construct: purchased Eurofins DiscoverX KINOMEscan
Source text: as §1

LZK = target: T17, LZK (Homo sapiens, UniProt O43283); assay: KINOMEscan at 1 μM, LZK; format: binding; conditions: 1000 nM, read-out: Percent Control
T17 construct: purchased Eurofins DiscoverX KINOMEscan
Source text: as §1

KIT-autoinhibited = target: T18, KIT-autoinhibited (Homo sapiens, UniProt P10721); assay: KINOMEscan at 1 μM, KIT-autoinhibited; format: binding; conditions: 1000 nM, read-out: Percent Control
T18 construct: purchased Eurofins DiscoverX KINOMEscan
Source text: as §1

KIT(L576P) = target: T19, KIT(L576P) (Homo sapiens, UniProt P10721, L576P); assay: KINOMEscan 1 μM, KIT(L576P); format: binding; conditions: 1000 nM; Entrez KIT; read-out: Percent Control
T19 construct: purchased Eurofins DiscoverX KINOMEscan
Source text: (§2) Supplement cells-12-00287-s001.zip/File S2. KinomeScan data for the CAMKK2 probe and negative control.xlsx, sheet "SGC-CAMKK2-1" | column: Percent Control

INSR = target: T20, INSR (Homo sapiens, UniProt P06213); assay: KINOMEscan 1 μM, INSR; format: binding; conditions: 1000 nM; Entrez INSR; read-out: Percent Control
T20 construct: purchased Eurofins DiscoverX KINOMEscan
Source text: as §2

BMX = target: T21, BMX (Homo sapiens, UniProt P51813); assay: KINOMEscan 1 μM, BMX; format: binding; conditions: 1000 nM; Entrez BMX; read-out: Percent Control
T21 construct: purchased Eurofins DiscoverX KINOMEscan
T21 sequence (P51813 whole entry): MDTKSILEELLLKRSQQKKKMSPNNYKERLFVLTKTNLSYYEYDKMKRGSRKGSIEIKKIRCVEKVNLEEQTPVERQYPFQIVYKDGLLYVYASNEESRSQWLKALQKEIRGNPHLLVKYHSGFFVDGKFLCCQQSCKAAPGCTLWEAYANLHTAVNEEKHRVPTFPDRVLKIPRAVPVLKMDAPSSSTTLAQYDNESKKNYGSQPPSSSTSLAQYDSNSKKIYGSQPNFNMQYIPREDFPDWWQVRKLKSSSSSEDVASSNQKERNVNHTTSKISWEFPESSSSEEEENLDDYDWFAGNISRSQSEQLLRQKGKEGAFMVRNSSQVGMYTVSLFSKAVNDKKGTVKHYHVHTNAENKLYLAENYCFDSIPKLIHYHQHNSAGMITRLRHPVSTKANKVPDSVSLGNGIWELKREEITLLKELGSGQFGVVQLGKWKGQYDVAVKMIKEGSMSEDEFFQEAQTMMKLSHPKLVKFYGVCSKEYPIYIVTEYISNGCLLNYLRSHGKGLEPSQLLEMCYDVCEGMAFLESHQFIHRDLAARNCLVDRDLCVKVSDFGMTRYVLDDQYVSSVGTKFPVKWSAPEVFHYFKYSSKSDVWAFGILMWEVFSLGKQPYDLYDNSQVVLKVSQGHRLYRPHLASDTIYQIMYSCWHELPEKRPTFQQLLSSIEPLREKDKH
Source text: as §2

BMPR1A = target: T22, BMPR1A (Homo sapiens, UniProt P36894); assay: KINOMEscan 1 μM, BMPR1A; format: binding; conditions: 1000 nM; Entrez BMPR1A; read-out: Percent Control
T22 construct: purchased Eurofins DiscoverX KINOMEscan
T22 sequence (P36894 24-532): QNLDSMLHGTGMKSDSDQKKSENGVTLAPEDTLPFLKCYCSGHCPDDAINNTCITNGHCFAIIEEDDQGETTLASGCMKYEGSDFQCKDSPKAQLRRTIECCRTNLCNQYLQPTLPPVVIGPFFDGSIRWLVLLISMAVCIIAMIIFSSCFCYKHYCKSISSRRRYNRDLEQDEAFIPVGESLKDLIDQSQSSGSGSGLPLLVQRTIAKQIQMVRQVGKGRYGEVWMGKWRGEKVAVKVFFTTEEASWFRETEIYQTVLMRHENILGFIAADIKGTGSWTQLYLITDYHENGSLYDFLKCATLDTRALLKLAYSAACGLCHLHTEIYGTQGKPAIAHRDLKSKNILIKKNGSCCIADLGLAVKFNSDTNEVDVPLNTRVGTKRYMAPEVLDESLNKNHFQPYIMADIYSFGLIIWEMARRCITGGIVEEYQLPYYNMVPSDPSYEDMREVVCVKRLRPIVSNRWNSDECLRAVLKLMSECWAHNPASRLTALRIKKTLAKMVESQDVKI
Source text: as §2

JNK2 = target: T23, JNK2 (Homo sapiens, UniProt P45984); assay: KINOMEscan 1 μM, JNK2; format: binding; conditions: 1000 nM; Entrez MAPK9; read-out: Percent Control
T23 construct: purchased Eurofins DiscoverX KINOMEscan
Source text: as §2

[2] = target: T24, ABL1(Q252H)-nonphosphorylated (Homo sapiens, UniProt P00519, Q252H); assay: KINOMEscan 1 μM, ABL1(Q252H)-nonphosphorylated; format: binding; conditions: 1000 nM; Entrez ABL1; read-out: Percent Control
T24 construct: purchased Eurofins DiscoverX KINOMEscan
Source text: as §2

RIPK1 = target: T25, RIPK1 (Homo sapiens, UniProt Q13546); assay: KINOMEscan 1 μM, RIPK1; format: binding; conditions: 1000 nM; Entrez RIPK1; read-out: Percent Control
T25 construct: purchased Eurofins DiscoverX KINOMEscan
Source text: as §2

MAPKAPK5 = target: T26, MAPKAPK5 (Homo sapiens, UniProt Q8IW41); assay: KINOMEscan 1 μM, MAPKAPK5; format: binding; conditions: 1000 nM; Entrez MAPKAPK5; read-out: Percent Control
T26 construct: purchased Eurofins DiscoverX KINOMEscan
Source text: as §2

[3] = target: T27, RSK4(Kin.Dom.2-C-terminal) (Homo sapiens, UniProt Q9UK32); assay: DiscoverX KINOMEscan binding assay at 1 μM, RSK4(Kin.Dom.2-C-terminal); conditions: RSK4(Kin.Dom.2-C-terminal) (RPS6KA6); Compound Concentration 1000 nM; read-out: Percent Control
T27 construct: RSK4(Kin.Dom.2-C-terminal); purchased Eurofins DiscoverX KINOMEscan
T27 sequence (Q9UK32 401-745 limits assumed): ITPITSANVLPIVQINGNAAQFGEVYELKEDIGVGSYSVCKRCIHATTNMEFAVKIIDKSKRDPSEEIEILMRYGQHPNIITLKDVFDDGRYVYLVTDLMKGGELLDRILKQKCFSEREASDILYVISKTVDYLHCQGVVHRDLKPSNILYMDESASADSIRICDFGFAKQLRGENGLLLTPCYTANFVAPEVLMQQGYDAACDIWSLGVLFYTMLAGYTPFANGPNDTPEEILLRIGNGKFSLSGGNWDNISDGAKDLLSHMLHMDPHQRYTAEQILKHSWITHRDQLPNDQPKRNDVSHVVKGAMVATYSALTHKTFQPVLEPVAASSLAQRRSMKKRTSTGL
Source text: as §2

PCTK3 = target: T28, PCTK3 (Homo sapiens, UniProt Q07002); assay: KINOMEscan 1 μM, PCTK3; format: binding; conditions: 1000 nM; Entrez CDK18; read-out: Percent Control
T28 construct: purchased Eurofins DiscoverX KINOMEscan
T28 sequence (Q07002 whole entry): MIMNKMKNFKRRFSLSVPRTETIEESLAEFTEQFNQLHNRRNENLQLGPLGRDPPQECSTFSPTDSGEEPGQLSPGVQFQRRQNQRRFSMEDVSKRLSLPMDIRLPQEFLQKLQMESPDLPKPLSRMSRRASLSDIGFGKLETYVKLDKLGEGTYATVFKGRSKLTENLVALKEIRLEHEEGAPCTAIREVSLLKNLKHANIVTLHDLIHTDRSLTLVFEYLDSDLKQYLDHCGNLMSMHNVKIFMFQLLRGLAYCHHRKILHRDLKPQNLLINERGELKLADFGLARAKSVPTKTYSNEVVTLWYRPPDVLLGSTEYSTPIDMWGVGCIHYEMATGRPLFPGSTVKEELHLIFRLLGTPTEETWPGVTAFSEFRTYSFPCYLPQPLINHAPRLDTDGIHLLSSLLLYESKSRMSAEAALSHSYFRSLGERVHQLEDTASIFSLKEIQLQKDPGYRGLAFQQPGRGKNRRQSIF
Source text: as §2

TNNI3K = target: T29, TNNI3K (Homo sapiens, UniProt Q59H18); assay: DiscoverX KINOMEscan binding assay at 1 μM, TNNI3K; conditions: Compound Concentration 1000 nM, read-out: Percent Control
T29 construct: purchased Eurofins DiscoverX KINOMEscan
Source text: as §2

ERK3 = target: T30, ERK3 (Homo sapiens, UniProt Q16659); assay: KINOMEscan 1 μM, ERK3; format: binding; conditions: 1000 nM; Entrez MAPK6; read-out: Percent Control
T30 construct: purchased Eurofins DiscoverX KINOMEscan
Source text: as §2

MEK1 = target: T31, MEK1 (Homo sapiens, UniProt Q02750); assay: KINOMEscan 1 μM, MEK1; format: binding; conditions: 1000 nM; Entrez MAP2K1; read-out: Percent Control
T31 construct: purchased Eurofins DiscoverX KINOMEscan
Source text: as §2

BLK = target: T32, BLK (Homo sapiens, UniProt P51451); assay: KINOMEscan 1 μM, BLK; format: binding; conditions: 1000 nM; Entrez BLK; read-out: Percent Control
T32 construct: purchased Eurofins DiscoverX KINOMEscan
Source text: as §2

FER = target: T33, FER (Homo sapiens, UniProt P16591); assay: KINOMEscan 1 μM, FER; format: binding; conditions: 1000 nM; Entrez FER; read-out: Percent Control
T33 construct: purchased Eurofins DiscoverX KINOMEscan
Source text: as §2

O=C(O)c1ccc(-c2coc3ncc(-c4ccccc4)cc23)cc1Cl [SGC-CAMKK2-1N (UNC-YL-83)]
remaining binding at 1 µM (ROS1): 100% | remaining binding at 1 µM (GAK): 88% | remaining binding at 1 µM (FRK): 100% | remaining binding at 1 µM (LATS1): 83% | remaining binding at 1 µM (ADCK4): 100% | remaining binding at 1 µM (MYLK4): 91% | remaining binding at 1 µM (NDR1): 87% | remaining binding at 1 µM (TYRO3): 100% | remaining binding at 1 µM [1]: 100% | remaining binding at 1 µM (PIKFYVE): 84% | remaining binding at 1 µM (CDKL1): 72% | remaining binding at 1 µM (p38-gamma): 100% | remaining binding at 1 µM (ADCK3): 68% | remaining binding at 1 µM (CDK5): 100% | remaining binding at 1 µM (PFTAIRE2): 76% | remaining binding at 1 µM (KIT): 89% | remaining binding at 1 µM (LZK): 81% | remaining binding at 1 µM (KIT-autoinhibited): 92%

Cc1cccc(-c2cnc3occ(-c4ccc(C(=O)O)c(C5CCCC5)c4)c3c2)c1 [SGC-CAMKK2-1 (YL-36)]
remaining binding at 1 µM (KIT(L576P)): 100% | remaining binding at 1 µM (INSR): 77% | remaining binding at 1 µM (BMX): 100% | remaining binding at 1 µM (BMPR1A): 100% | remaining binding at 1 µM (JNK2): 100% | remaining binding at 1 µM [2]: 100% | remaining binding at 1 µM (RIPK1): 93% | remaining binding at 1 µM (MAPKAPK5): 100% | remaining binding at 1 µM [3]: 100% | remaining binding at 1 µM (PCTK3): 99% | remaining binding at 1 µM (TNNI3K): 100% | remaining binding at 1 µM (ERK3): 81% | remaining binding at 1 µM (MEK1): 100% | remaining binding at 1 µM (BLK): 70% | remaining binding at 1 µM (FER): 77%
